Results published in patent US20240180920A1, “CERTAIN FASCIN BINDING COMPOUNDS FOR SPINOGENESIS” (Spinogenix, Inc., priority 2021, published 2024).

Columns and labels:
[1] = tested on: primary mouse hippocampal neurons; assay: Synaptic density (colocalized PSD95/VGlut elements per length of dendrite) in treated neurons, FIG. 1; format: cell-based; conditions: 10 μM compared with 500 nM and 50 nM, 24 hours
Experimental: Specifically, primary mouse hippocampal neurons were treated on day 14 in culture with one of the four compounds, each at concentrations of 10 μM, 500 nM, and 50 nM, or with control (vehicle (0.1% DMSO)) for 24 hours. Following the treatments, neurons were fixed in 4% paraformaldehyde and processed for staining with phalloidin and immunolabeling with antibodies to the postsynaptic marker PSD95, and the presynaptic marker VGlut. Images were acquired using a laser scanning confocal microscope and analyzed for the number of colocalized pre and post synaptic elements per length of dendrite. Studies were performed across 3 biological preparations of primary neurons, with a minimum of 12 dendritic segments analyzed per treatment/prep. Graphing and statistical analyses of synaptic density data were performed with Prism software.

[2] = target: fascin actin-binding site 2 (Homo sapiens, UniProt Q16658); conditions: stated as known; cited from earlier work
fascin = fascin (Homo sapiens, UniProt Q16658); conditions: stated as known; cited from earlier work

Compound | concentration dependence of activity (synaptic density) [1] | interaction with or binding to fascin [2] | effect on fascin's actin-bundling activity (fascin)
C/C(=N\NC(=N)N)c1cc(NC(=O)CCCCCCCCC(=O)Nc2cc(/C(C)=N/NC(=N)N)cc(/C(C)=N/NC(=N)N)c2)cc(/C(C)=N/NC(=N)N)c1 [semapimod] | higher activities at the concentration of 10 μM than at lower concentrations |  | 
CN(C)CCCN1c2ccccc2CCc2ccccc21 [imipramine] | higher activities at the concentration of 10 μM than at lower concentrations | known to interact with or bind fascin at actin-binding site 2 | interact or inhibit fascin's actin-bundling activity
N=C(N)NCCCCC(=O)Nc1cc(C(F)(F)F)cc(NC(=O)c2cc(C(=O)Nc3cc(C(F)(F)F)cc(NC(=O)CCCCNC(=N)N)c3O[C@@H]3CCNC3)ncn2)c1O[C@@H]1CCNC1 (racemic) [brilacidin] | higher activities at the concentration of 10 μM than at lower concentrations |  | 
